ChEMBL document CHEMBL2440076, “New triarylpyrazoles as broad-spectrum anticancer agents: design, synthesis, and biological evaluation” (Eur J Med Chem, 2013)

Assays:
Format in all cases: functional
SF-539 = assay: Growth inhibition of human SF539 cells assessed as cell growth at 3X10'-5 M after 48 hrs by sulforhodamine B assay; conditions: SF-539, 48 h, read-out: Activity
TK-10 [1] = assay: Growth inhibition of human TK10 cells assessed as cell growth at 3X10'-9 M after 48 hrs by sulforhodamine B assay; conditions: TK-10, 48 h, read-out: Activity
[2] = Growth inhibition of human HCC2998 cells assessed as cell growth at 3X10'-9 M after 48 hrs by sulforhodamine B assay; conditions: HCC 2998, 48 h, read-out: Activity
UACC-62 [3] = assay: Growth inhibition of human UACC62 cells assessed as cell growth at 3X10'-9 M after 48 hrs by sulforhodamine B assay; conditions: UACC-62, 48 h, read-out: Activity
RXF 393 [4] = assay: Growth inhibition of human RXF393 cells assessed as cell growth at 3X10'-6 M after 48 hrs by sulforhodamine B assay; conditions: RXF 393, 48 h, read-out: Activity
MOLT-4 = assay: Growth inhibition of human MOLT4 cells assessed as cell growth at 3X10'-7 M after 48 hrs by sulforhodamine B assay; conditions: MOLT-4, 48 h, read-out: Activity
IGROV-1 = assay: Growth inhibition of human IGROV1 cells assessed as cell growth at 3X10'-9 M after 48 hrs by sulforhodamine B assay; conditions: IGROV-1, 48 h, read-out: Activity
OVCAR-3 [5] = assay: Growth inhibition of human OVCAR3 cells assessed as cell growth at 3X10'-6 M after 48 hrs by sulforhodamine B assay; conditions: OVCAR-3, 48 h, read-out: Activity
SK-MEL-28 = assay: Growth inhibition of human SK-MEL-28 cells assessed as cell growth at 3X10'-8 M after 48 hrs by sulforhodamine B assay; conditions: SK-MEL-28, 48 h, read-out: Activity
COLO 205 = assay: Growth inhibition of human COLO205 cells assessed as cell growth at 3X10'-9 M after 48 hrs by sulforhodamine B assay; conditions: COLO 205, 48 h, read-out: Activity
TK-10 [6] = assay: Growth inhibition of human TK10 cells assessed as cell growth at 3X10'-8 M after 48 hrs by sulforhodamine B assay; conditions: TK-10, 48 h, read-out: Activity
Malme-3M = assay: Growth inhibition of human MALME-3M cells assessed as cell growth at 3X10'-9 M after 48 hrs by sulforhodamine B assay; conditions: read-out: Activity
RXF 393 [7] = assay: Growth inhibition of human RXF393 cells assessed as cell growth at 3X10'-7 M after 48 hrs by sulforhodamine B assay; conditions: RXF 393, 48 h, read-out: Activity
CCRF-CEM = assay: Growth inhibition of human CCRF-CEM cells assessed as cell growth at 3X10'-8 M after 48 hrs by sulforhodamine B assay; conditions: read-out: Activity
U-251 = assay: Growth inhibition of human U251 cells assessed as cell growth at 3X10'-9 M after 48 hrs by sulforhodamine B assay; conditions: U-251, 48 h, read-out: Activity
SF-295 [8] = assay: Growth inhibition of human SF295 cells assessed as cell growth at 3X10'-9 M after 48 hrs by sulforhodamine B assay; conditions: SF-295, 48 h, read-out: Activity
OVCAR-4 = assay: Growth inhibition of human OVCAR4 cells assessed as cell growth at 3X10'-8 M after 48 hrs by sulforhodamine B assay; conditions: OVCAR-4, 48 h, read-out: Activity
UACC-62 [9] = assay: Growth inhibition of human UACC62 cells assessed as cell growth at 3X10'-7 M after 48 hrs by sulforhodamine B assay; conditions: UACC-62, 48 h, read-out: Activity
M14 [10] = assay: Growth inhibition of human M14 cells assessed as cell growth at 3X10'-8 M after 48 hrs by sulforhodamine B assay; conditions: M14, 48 h, read-out: Activity
HCT-116 = assay: Growth inhibition of human HCT116 cells assessed as cell growth at 3X10'-9 M after 48 hrs by sulforhodamine B assay; conditions: HCT-116, 48 h, read-out: Activity
A549 = assay: Growth inhibition of human A549/ATCC cells assessed as cell growth at 3X10'-6 M after 48 hrs by sulforhodamine B assay; conditions: A549, 48 h, read-out: Activity
HOP-62 = assay: Growth inhibition of human HOP62 cells assessed as cell growth at 3X10'-9 M after 48 hrs by sulforhodamine B assay; conditions: HOP-62, 48 h, read-out: Activity
HCT-15 [11] = assay: Growth inhibition of human HCT15 cells assessed as cell growth at 3X10'-5 M after 48 hrs by sulforhodamine B assay; conditions: HCT-15, 48 h, read-out: Activity
OVCAR-8 = assay: Growth inhibition of human OVCAR8 cells assessed as cell growth at 3X10'-8 M after 48 hrs by sulforhodamine B assay; conditions: OVCAR-8, 48 h, read-out: Activity
SF-295 [12] = assay: Growth inhibition of human SF295 cells assessed as cell growth at 3X10'-7 M after 48 hrs by sulforhodamine B assay; conditions: SF-295, 48 h, read-out: Activity
SK-MEL-5 = assay: Growth inhibition of human SK-MEL-5 cells assessed as cell growth at 3X10'-6 M after 48 hrs by sulforhodamine B assay; conditions: SK-MEL-5, 48 h, read-out: Activity
SNB-75 = assay: Growth inhibition of human SNB75 cells assessed as cell growth at 3X10'-5 M after 48 hrs by sulforhodamine B assay; conditions: SNB-75, 48 h, read-out: Activity
MDA-MB-468 = assay: Growth inhibition of human MDA-MB-468 cells assessed as cell growth at 3X10'-5 M after 48 hrs by sulforhodamine B assay; conditions: MDA-MB-468, 48 h, read-out: Activity
786-0 = assay: Growth inhibition of human 786-0 cells assessed as cell growth at 3X10'-6 M after 48 hrs by sulforhodamine B assay; conditions: 786-0, 48 h, read-out: Activity
HCT-15 [13] = assay: Growth inhibition of human HCT15 cells assessed as cell growth at 3X10'-6 M after 48 hrs by sulforhodamine B assay; conditions: HCT-15, 48 h, read-out: Activity
UACC-257 = assay: Growth inhibition of human UACC257 cells assessed as cell growth at 3X10'-8 M after 48 hrs by sulforhodamine B assay; conditions: UACC-257, 48 h, read-out: Activity
M14 [14] = assay: Growth inhibition of human M14 cells assessed as cell growth at 3X10'-7 M after 48 hrs by sulforhodamine B assay; conditions: M14, 48 h, read-out: Activity
NCI-H460 = assay: Growth inhibition of human NCI-H460 cells assessed as cell growth at 3X10'-5 M after 48 hrs by sulforhodamine B assay; conditions: NCI-H460, 48 h, read-out: Activity
OVCAR-3 [15] = assay: Growth inhibition of human OVCAR3 cells assessed as cell growth at 3X10'-7 M after 48 hrs by sulforhodamine B assay; conditions: OVCAR-3, 48 h, read-out: Activity
BT-549 = assay: Growth inhibition of human BT549 cells assessed as cell growth at 3X10'-5 M after 48 hrs by sulforhodamine B assay; conditions: BT-549, 48 h, read-out: Activity
HOP-92 = assay: Growth inhibition of human HOP92 cells assessed as cell growth at 3X10'-6 M after 48 hrs by sulforhodamine B assay; conditions: HOP-92, 48 h, read-out: Activity

SMILES | growth at 30 µM (SF-539) | growth at 0.003 µM (TK-10 [1]) | growth at 0.003 µM [2] | growth at 0.003 µM (UACC-62 [3]) | growth at 3 µM (RXF 393 [4]) | growth at 0.3 µM (MOLT-4) | growth at 0.003 µM (IGROV-1) | growth at 3 µM (OVCAR-3 [5]) | growth at 0.03 µM (SK-MEL-28) | growth at 0.003 µM (COLO 205) | growth at 0.03 µM (TK-10 [6]) | growth at 0.003 µM (Malme-3M) | growth at 0.3 µM (RXF 393 [7]) | growth at 0.03 µM (CCRF-CEM) | growth at 0.003 µM (U-251) | growth at 0.003 µM (SF-295 [8]) | growth at 0.03 µM (OVCAR-4) | growth at 0.3 µM (UACC-62 [9]) | growth at 0.03 µM (M14 [10]) | growth at 0.003 µM (HCT-116) | other results
COc1cc(-c2nn(-c3cccc(NC(=O)c4ccc(Cl)c(C(F)(F)F)c4)c3)cc2-c2ccncc2)ccc1Cl | -15% | 90% | 95% | 99% | 36% | 98% | 94% | 43% | 100% | 101% | 93% | 80% | 89% | 102% | 96% | 92% | 103% | 92% | 96% | 100% | growth at 3 µM (A549): 44%; growth at 0.003 µM (HOP-62): 98%; growth at 30 µM (HCT-15 [11]): 25%; growth at 0.03 µM (OVCAR-8): 98%; growth at 0.3 µM (SF-295 [12]): 90%; growth at 3 µM (SK-MEL-5): 24%; growth at 30 µM (SNB-75): -2%; growth at 30 µM (MDA-MB-468): 9%; growth at 3 µM (786-0): 71%; growth at 3 µM (HCT-15 [13]): 50%; growth at 0.03 µM (UACC-257): 102%; growth at 0.3 µM (M14 [14]): 94%; growth at 30 µM (NCI-H460): 7%; growth at 0.3 µM (OVCAR-3 [15]): 98%; growth at 30 µM (BT-549): 29%
O=C(Nc1cccc(-n2cc(-c3ccncc3)c(-c3ccc(Cl)c(O)c3)n2)c1)Nc1ccc(Cl)c(C(F)(F)F)c1 | -37% | 101% | 100% | 98% | -28% | 83% | 98% | -24% | 97% | 105% | 103% | 100% | 69% | 97% | 98% | 92% | 95% | 89% | 101% | 105% | growth at 3 µM (HOP-92): -30%; growth at 3 µM (A549): 7%; growth at 0.003 µM (HOP-62): 97%; growth at 30 µM (HCT-15 [11]): -2%; growth at 0.03 µM (OVCAR-8): 95%; growth at 0.3 µM (SF-295 [12]): 90%; growth at 3 µM (SK-MEL-5): -81%; growth at 30 µM (SNB-75): -31%; growth at 30 µM (MDA-MB-468): -43%; growth at 3 µM (786-0): 19%; growth at 3 µM (HCT-15 [13]): 4%; growth at 0.03 µM (UACC-257): 94%; growth at 0.3 µM (M14 [14]): 94%; growth at 30 µM (NCI-H460): -41%; growth at 0.3 µM (OVCAR-3 [15]): 101%; growth at 30 µM (BT-549): -19%
